Measured values from patent US20100159496A1, “EVALUATION METHOD FOR PHOTOSYNTHESIS SAMPLE, EVALUATION SYSTEM FOR PHOTOSYNTHESIS SAMPLE, AND EVALUATION PROGRAM FOR PHOTOSYNTHESIS SAMPLE” (HAMAMATSU PHOTONICS K.K., priority 2006, published 2010).

Tested on: Spirulina platensis
Experiment: Delayed luminescence of S. platensis exposed to simazine, fitted by Formula (1)
Assay type: cell-based
Set-up: Fitting formula value c3 / Fitting formula value a1 / Fitting formula value b1 / Fitting formula value c1 / Fitting formula value a2 / Fitting formula value b2 / Fitting formula value c2 / Fitting formula value a3 / Fitting formula value b3: unit not given here
Settings: for luminescence amount of delayed luminescence, exposed vs not exposed: 15 minutes after exposure (FIG. 10); for Fitting formula value a1 / Fitting formula value a2 / Fitting formula value a3 / Fitting formula value b1 / Fitting formula value b2 / Fitting formula value b3 / Fitting formula value c1 / Fitting formula value c2 / Fitting formula value c3: 15 minutes after exposure
Method: In the present example, the measurement of delayed luminescence was carried out as follows. 2.5 mL of an S. platensis cell suspension, adjusted to have an absorbance at 660 nm of 0.05 in a general, 10×10 mm spectrometric cell, was exposed to simazine of any of various concentrations and left to stand for 15 minutes under a white fluorescent lamp of a light amount of 50 μmol·m−2·s−1. Thereafter, inside the measuring device 10, a red light (660 nm) of approximately 300 μmol·m−2·s−1 was illuminated for 10 seconds from the light source 18 as the excitation light for making delayed luminescence be emitted and then the delayed luminescence emitted after extinguishing of the excitation light was recorded for 50 seconds at 0.1 second intervals.
In the present example, the above-described Formula (1) was used for fitting. As examples for description of the fitting results, the measurement result for the “Not exposed” case is shown in FIG. 11A and a graph of the results of fitting to the measurement data are shown in FIG. 11B. In FIG. 11B, f1(t), f2(t), and f3(t) are respectively the first function, the second function, and the third function in Formula (1). From FIG. 11, it can be understood that the delayed luminescence measurement data can be fitted by a plurality of hill-shaped functions.
By the fitting, the function coefficients, ai, bi, and ci (i=1, 2, 3) are determined.

[1] = simazine exposure concentration 5 μg/L
[2] = simazine exposure concentration 25 μg/L
[3] = simazine exposure concentration 50 μg/L
[4] = simazine exposure concentration 100 μg/L

CCNc1nc(Cl)nc(NCC)n1 [Simazine, simazine]
variation of evaluation value c3 with simazine exposure concentration (S. platensis (FIG. 12)): decreases in accordance with the simazine exposure concentration
luminescence amount of delayed luminescence, exposed vs not exposed (early time period (near 0 seconds) of time after excitation): increases
luminescence amount of delayed luminescence, exposed vs not exposed (later time period (5 seconds onward) after excitation): decreases
Fitting formula value a1 [1]: 0.2
Fitting formula value a2 [1]: 0.01
Fitting formula value a3 [1]: 0.006
Fitting formula value b1 [1]: −0.5
Fitting formula value b2 [1]: −0.5
Fitting formula value b3 [1]: 22
Fitting formula value c1 [1]: 4.5
Fitting formula value c2 [1]: 3.5
Fitting formula value c3 [1]: 2.2
Fitting formula value a1 [2]: 0.2
Fitting formula value a2 [2]: 0.018
Fitting formula value a3 [2]: 0.005
Fitting formula value b1 [2]: −0.5
Fitting formula value b2 [2]: −0.5
Fitting formula value b3 [2]: 22
Fitting formula value c1 [2]: 4.8
Fitting formula value c2 [2]: 3.8
Fitting formula value c3 [2]: 1.6
Fitting formula value a1 [3]: 0.3
Fitting formula value a2 [3]: 0.02
Fitting formula value a3 [3]: 0.01
Fitting formula value b1 [3]: −0.5
Fitting formula value b2 [3]: −0.5
Fitting formula value b3 [3]: 21
Fitting formula value c1 [3]: 5
Fitting formula value c2 [3]: 3.8
Fitting formula value c3 [3]: 1.2
Fitting formula value a1 [4]: 0.4
Fitting formula value a2 [4]: 0.024
Fitting formula value a3 [4]: 0.02
Fitting formula value b1 [4]: −0.5
Fitting formula value b2 [4]: −0.5
Fitting formula value b3 [4]: 20
Fitting formula value c1 [4]: 5.5
Fitting formula value c2 [4]: 3.8
Fitting formula value c3 [4]: 0.7
